Source: ChEMBL document CHEMBL4680363, “Novel Bicyclic Heterocycles as FGFR Inhibitors for Treating Cancer” (ACS Med Chem Lett, 2021)

target: Fibroblast growth factor receptor 3 (Homo sapiens, UniProt P22607); assay: Inhibition of recombinant human N-terminal His6-tagged FGFR3 (447 to 761 residues) expressed in Sf21 cells using biotinylated EQEDEPEGDYFEWLE peptide as substrate preincubated for 4 hrs followed by substrate addition and measured after 1 hr in presence of ATP by FRET assay
Sequence (P22607 whole entry, the tested form may be a part): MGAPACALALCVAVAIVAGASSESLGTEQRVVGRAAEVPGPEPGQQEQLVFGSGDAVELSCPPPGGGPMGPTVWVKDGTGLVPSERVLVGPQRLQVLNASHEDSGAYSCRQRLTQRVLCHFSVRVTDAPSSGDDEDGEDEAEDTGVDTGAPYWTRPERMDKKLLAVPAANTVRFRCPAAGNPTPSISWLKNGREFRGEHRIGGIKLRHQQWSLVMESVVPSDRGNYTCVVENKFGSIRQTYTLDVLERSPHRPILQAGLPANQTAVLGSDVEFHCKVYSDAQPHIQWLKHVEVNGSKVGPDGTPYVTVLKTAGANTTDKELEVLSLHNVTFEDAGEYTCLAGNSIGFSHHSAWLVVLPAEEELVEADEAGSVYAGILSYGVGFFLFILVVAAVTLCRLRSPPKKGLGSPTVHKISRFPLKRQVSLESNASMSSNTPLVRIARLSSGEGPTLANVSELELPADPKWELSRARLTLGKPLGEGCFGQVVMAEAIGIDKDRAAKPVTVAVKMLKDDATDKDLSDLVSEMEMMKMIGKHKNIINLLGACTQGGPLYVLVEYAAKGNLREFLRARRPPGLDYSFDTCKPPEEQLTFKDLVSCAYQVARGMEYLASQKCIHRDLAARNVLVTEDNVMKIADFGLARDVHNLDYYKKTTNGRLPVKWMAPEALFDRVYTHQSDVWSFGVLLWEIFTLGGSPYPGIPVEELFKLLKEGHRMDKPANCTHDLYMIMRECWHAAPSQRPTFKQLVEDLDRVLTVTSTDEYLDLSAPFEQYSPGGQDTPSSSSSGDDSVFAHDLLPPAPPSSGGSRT

Row | IC50 [nM] | Compound
1 | < 10 | Cn1cc(-c2n[nH]c3ccc(N4CCn5cnc(C(F)(F)F)c5C4)nc23)cn1
2 | < 10 | CC(C)C1C(=O)N(C)CCN1c1ccc2[nH]nc(-c3cc4cnccc4s3)c2n1 (stereo unspecified)
3 | < 10 | CC1CN(c2ccc3[nH]nc(-c4cnn(C)c4)c3n2)C(C)C(=O)N1C (stereo unspecified)
4 | < 10 | CC(C)C1C(=O)N(C)CCN1c1ccc2[nH]nc(-c3cnn(C)c3)c2n1 (stereo unspecified)
5 | < 10 | CC(C)C1C(=O)N(C)CCN1c1ccc2[nH]nc(-c3cnn(Cc4cccnc4)c3)c2n1 (stereo unspecified)
6 | < 10 | CN1CCN(c2ccc3[nH]nc(-c4cnn(C)c4)c3n2)C(C2CC2)C1=O (stereo unspecified)
